Source: ChEMBL document CHEMBL5214978, “Identification of 1,4-Benzodiazepine-2,5-dione Derivatives as Potential Protein Synthesis Inhibitors with Highly Potent Anticancer Activity” (J Med Chem, 2022)

Key:
Format in all cases: functional
HCT-116 = assay: Anticancer activity against human HCT-116 cells assessed as cell growth inhibition measured after 48 hrs by SRB assay
LOX IMVI = assay: Anticancer activity against human LOX IMVI cells assessed as cell growth inhibition measured after 48 hrs by SRB assay
[1] = system: Panel NCI-60 (60 carcinoma cell lines); assay: Anticancer activity against human Panel NCI-60 (60 carcinoma cell lines) line assessed as cell growth inhibition measured after 48 hrs by SRB assay
SF-295 = assay: Anticancer activity against human SF-295 cells assessed as cell growth inhibition measured after 48 hrs by SRB assay
786-0 = assay: Anticancer activity against human 786-0 cells assessed as cell growth inhibition measured after 48 hrs by SRB assay
A549 = assay: Anticancer activity against human A549 cells assessed as cell growth inhibition measured after 48 hrs by SRB assay

GI50 (HCT-116) | GI50 (786-0) | GI50 (A549) | SMILES | GI50 (LOX IMVI) | GI50 [1] | GI50 (SF-295)
> 0.005 µM | 0.007 µM | < 0.005 µM | CCN(CC)C(=O)C[C@@H]1NC(=O)c2cc(Oc3cc(C)cc(C)c3)c(NC(=O)c3cc(OC)c(OC)c(OC)c3Br)cc2NC1=O | < 5 nM | < 0.005 µM | < 5 nM
> 50 µM | > 50 µM | > 50 µM | COC(=O)C[C@@H]1NC(=O)c2cc(Oc3cc(C)cc(C)c3)c(NCc3cc(OC)c(OC)c(OC)c3)cc2NC1=O | > 50000 nM | > 50 µM | > 50000 nM
> 50 µM | > 50 µM | > 50 µM | CCOC(=O)C1NC(=O)c2cc(Oc3cc(C)cc(C)c3)c(NC(=O)c3cc(OC)c(OC)c(OC)c3)cc2NC1=O (stereo not given) | > 50000 nM | > 50 µM | > 50000 nM
5.25 µM | 14.9 µM | 3.41 µM | COC(=O)C[C@@H]1NC(=O)c2cc(Oc3cccc(N(C)C)c3)c(NC(=O)c3cc(OC)c(OC)c(OC)c3)cc2NC1=O | 5260 nM | 4.68 µM | 3090 nM
0.022 µM | 0.03 µM | 0.021 µM | CCN(CC)C(=O)C[C@H]1C(=O)Nc2cc(NC(=O)c3cc(OC)c(OC)c(OC)c3Cl)c(Oc3cc(C)c(F)c(C)c3)cc2C(=O)N1C | 9 nM | 0.018 µM | 19 nM
> 50 µM | > 50 µM | > 50 µM | COC(=O)C[C@@H]1NC(=O)c2cc(-c3cc(C)cc(C)c3)c(NC(=O)c3cc(OC)c(OC)c(OC)c3)cc2NC1=O | > 50000 nM | > 50 µM | > 50000 nM
2.82 µM | 4.78 µM | 1.81 µM | COC(=O)C[C@@H]1NC(=O)c2cc(OCc3cc(C)cc(C)c3)c(NC(=O)c3cc(OC)c(OC)c(OC)c3)cc2NC1=O | 2990 nM | 3.02 µM | 1500 nM
50 µM | > 50 µM | > 50 µM | CCN(CC)C(=O)C[C@@H]1NC(=O)c2cc(Oc3cc(C)cc(C)c3)c(N(C)C(=O)c3cc(OC)c(OC)c(OC)c3)cc2NC1=O | > 50000 nM | > 50 µM | > 50000 nM
> 50 µM | > 50 µM | > 50 µM | COC(=O)C[C@@H]1NC(=O)c2cc(C#Cc3cc(C)cc(C)c3)c(NC(=O)c3cc(OC)c(OC)c(OC)c3)cc2NC1=O | > 50000 nM | > 50 µM | > 50000 nM
0.79 µM | 3.45 µM | 3.97 µM | COc1cc(C(=O)Nc2cc3c(cc2Oc2cc(C)cc(C)c2)C(=O)N[C@@H](CC(N)=O)C(=O)N3)cc(OC)c1OC | 350 nM | 1.12 µM | 2010 nM
0.26 µM | 0.72 µM | 0.14 µM | CCc1noc(C[C@@H]2NC(=O)c3cc(Oc4cc(C)cc(C)c4)c(NC(=O)c4cc(OC)c(OC)c(OC)c4)cc3NC2=O)n1 | 130 nM | 0.27 µM | 110 nM
> 50 µM | > 50 µM | > 50 µM | COC(=O)C[C@@H]1NC(=O)c2cc(Oc3ccc(OC)cc3)c(NC(=O)c3cc(OC)c(OC)c(OC)c3)cc2NC1=O | > 50000 nM | > 50 µM | > 50000 nM
0.33 µM | 0.66 µM | 0.27 µM | CCc1nc(C[C@@H]2NC(=O)c3cc(Oc4cc(C)cc(C)c4)c(NC(=O)c4cc(OC)c(OC)c(OC)c4)cc3NC2=O)no1 | 240 nM | 0.36 µM | 120 nM
> 50 µM | > 50 µM | > 50 µM | COC(=O)C[C@H]1NC(=O)c2cc(Oc3cc(C)cc(C)c3)c(NC(=O)c3cc(OC)c(OC)c(OC)c3)cc2NC1=O | > 50000 nM | > 50 µM | > 50000 nM
> 50 µM | > 50 µM | > 50 µM | COC(=O)C[C@@H]1NC(=O)c2cc(Oc3ccc(C(F)(F)F)cc3)c(NC(=O)c3cc(OC)c(OC)c(OC)c3)cc2NC1=O | > 50000 nM | > 50 µM | > 50000 nM
